Data on 24 compounds can be found in the SangsterLogP compilation.

The structures appear in SMILES notation.

In general, logD refers to lipophilicity at a set pH, counting ionised and neutral species.

A short description of this data set: method code SF-HPLC, from PMID: 2608704. The settings on record: pH 1.0.
`O=C(O)CCSC1=NS(=O)(=O)c2cc(Br)cc(Br)c2N1`: the logD was determined as 2.04.

`Cc1ccc2c(c1)NC(SCCC(=O)O)=NS2(=O)=O` displayed a logD of 1.16.

Turning to `COc1ccc2c(c1)NC(SCC(=O)O)=NS2(=O)=O`, the logD was found to be 0.37.

As to `O=C(O)CCSC1=NS(=O)(=O)c2cc(Cl)c(Cl)cc2N1`, the logD was determined as 1.81.

For the compound `O=C(O)CCC1=NS(=O)(=O)c2cc(Cl)c(Cl)cc2N1`, the logD was determined as 1.5.

For `O=C(O)CCSC1=NS(=O)(=O)c2ccccc2N1`, the pH-dependent lipophilicity (logD) was determined as 0.66.

With `O=C(O)CSC1=NS(=O)(=O)c2ccccc2N1`, the logD worked out at 0.18.

Compound `O=C(O)CSC1=NS(=O)(=O)c2cc(Cl)ccc2N1` gave a logD of 0.72.

For the compound `Cc1ccc2c(c1)NC(SCC(=O)O)=NS2(=O)=O`, the logD was 0.7.

In turn, `O=C(O)CCC1=NS(=O)(=O)c2cc(Br)cc(Br)c2N1` had a logD of 1.35.

On to `O=C(O)CCSC1=NS(=O)(=O)c2ccc(Cl)cc2N1`, for which the logD came out at 1.6.

In turn, `O=C(O)CSC1=NS(=O)(=O)c2ccc(C(F)(F)F)cc2N1` gave a logD of 1.62.

The compound `COc1ccc2c(c1)NC(SCCC(=O)O)=NS2(=O)=O` yielded a logD of 0.96.

Take `O=C(O)CCSC1=NS(=O)(=O)c2ccc(C(F)(F)F)cc2N1`: the logD stood at 1.96.

Regarding `O=C(O)CCCC1=NS(=O)(=O)c2cc(Br)cc(Br)c2N1`, the logD worked out at 1.51.

For `O=C(O)CSC1=NS(=O)(=O)c2cc(Cl)cc(Cl)c2N1`, the logD was 1.09.

Compound `O=C(O)CSC1=NS(=O)(=O)c2ccc(Cl)cc2N1` gave a logD of 0.82.

Compound `O=C(O)CSC1=NS(=O)(=O)c2cc(Br)cc(Br)c2N1` displayed a logD of 1.16.

With `O=C(O)CCSC1=NS(=O)(=O)c2cc(Cl)ccc2N1`, the logD was 1.43.

`O=C(O)CCCC1=NS(=O)(=O)c2cc(Cl)cc(Cl)c2N1` came in with a logD of 1.22.

`O=C(O)CCC1=NS(=O)(=O)c2cc(Cl)cc(Cl)c2N1` gave a log distribution coefficient (logD) of 1.04.

`O=C(O)CSC1=NS(=O)(=O)c2cc(Cl)c(Cl)cc2N1` showed a logD of 1.1.

The compound `O=C(O)CSC1=NS(=O)(=O)c2cc(Br)ccc2N1` returned a logD of 0.92.

`O=C(O)CCSC1=NS(=O)(=O)c2cc(Br)ccc2N1` displayed a logD of 1.77.
